# Where “and” joins values, the source holds several entries; their conditions need not be identical. Equal entries are not always repeated.
# Tests used:
# Pseudomonas aeruginosa [1] = assay: MIC (broth-dilution microtiter) and FIC/isobologram (microtiter checkerboard) of EDTA-Tris and antibiotics; type: cell-based; conditions: Ps. aeruginosa
# Procedure: (§1) Agents and Chem. 210-217. (1967) and Sparks et al., Vet. Res. Comm. 18, 241-249 (1994), incorporated herein by reference in their entireties.
# (§2) Then 0.05 ml of an 18-hour old culture of a test organism, containing 10^6 colony-forming units (CFU)/ml, was added to each well. Controls for the culture and media were included in each plate. Plates were covered and incubated at 37° Celsius for 18-24 hours.
# (§3) To generate isobolograms, FICs of the two test solutions were plotted individually on the x-axis and y-axis to determine the effect of combining the two test solutions on bacterial growth. A line that curves away from the zero point and the coordinates indicates antagonism.
# (§4) A numerical score or fractional inhibitory concentration (FIC) index was determined. The FIC index is equal to the sum of the values of FIC for the individual drugs: [formula]
# (§5) An FIC index greater than 1.0 indicates an antagonistic interaction, an FIC index of 1.0 indicates addition, and an FIC index of less than or equal to 0.5 indicates synergism between the two test agents.
# (§6) The organisms of this study were isolated from human burn patients. They included strains of methicillin resistant Staphylococcus aureus, and vancomycin resistant strains of Pseudomonas aeruginosa and Enterococcus faecalis. The bacterial isolates were propagated in or on Brain Heart Infusion broth (BHI), Mueller-Hinton Broth (MHB), blood agar (BA), Mueller-Hinton agar (MHA), enterococcus agar (EA), or 2× nutrient agar (2×NA).
# Enterococcus faecalis [2] = assay: as above; type: cell-based; conditions: Ent. faecalis
# Procedure: as §1, §2, §3, §4, §5, §6
# Staphylococcus aureus [3] = assay: as above; type: cell-based; conditions: Staph. aureus
# Procedure: as §1, §2, §3, §4, §5, §6
# Pseudomonas aeruginosa [4] = assay: Antibiotic resistance profile by disc diffusion on MHA; type: cell-based; conditions: human burn isolate; further: key: R = resistant; I = intermediate; S = sensitive
# Procedure: as §6
# (§7) Antibiotic resistance profiles were determined by the disc diffusion method on MHA (5).
# Enterococcus faecalis [5] = assay: as above; type: cell-based; conditions: human burn isolate
# Procedure: as §6, §7
# Staphylococcus aureus [6] = assay: as above; type: cell-based; conditions: human burn isolate
# Procedure: as §6, §7
# Pseudomonas aeruginosa [7] = assay: MIC and MBC of cleanser formulation and components; type: cell-based; conditions: P. aeruginosa; cocamidopropyl betaine alone
# Procedure: (§8) The solution containing 10% cocamidopropyl betaine was selected for further testing. The formulation was tested against Pseudomonas aeruginosa, Proteus mirabilis, […] coli, Staphylococcus intermedius, Malassezia pachydermatis, and Candida albicans.
# Candida albicans = assay: MIC and MBC of cleanser formulation and components; type: cell-based; conditions: C. albicans; cocamidopropyl betaine alone
# Procedure: as §8
# Proteus mirabilis = assay: MIC and MBC of cleanser formulation and components; type: cell-based; conditions: P. mirabilis; cocamidopropyl betaine alone
# Procedure: as §8
# [8] = test system: Staphylococcus intermedius; assay: MIC and MBC of cleanser formulation and components; type: cell-based; conditions: S. intermedius; cocamidopropyl betaine alone
# Procedure: as §8
# Malassezia pachydermatis = assay: MIC and MBC of cleanser formulation and components; type: cell-based; conditions: M. pachydermatis; cocamidopropyl betaine alone
# Procedure: as §8
# E. coli = assay: MIC and MBC of cleanser formulation and components; type: cell-based, Escherichia coli; conditions: cocamidopropyl betaine alone
# Procedure: as §8
# Pseudomonas aeruginosa [9] = assay: Minimal Bactericidal Concentration (MBC) of EDTA and neomycin in 50 mM Tris; type: cell-based; conditions: Ps. aeruginosa
# From the text: as §6
# Enterococcus faecalis [10] = assay: as above; type: cell-based
# From the text: as §6
# Staphylococcus aureus [11] = assay: as above; type: cell-based; conditions: Staph. aureus
# From the text: as §6
# Wherever Antibiotic resistance profile is given: key: R = resistant; I = intermediate; S = sensitive.
molecule,measurement,setting,value
"O=C(O)CN(CCN(CC(=O)O)CC(=O)O)CC(=O)O [EDTA, ethylenediamenetetracetic acid]","MIC, EDTA Individually Administered",Pseudomonas aeruginosa [1]; EDTA in 50 mM Tris alone,1250 µM
same,"MIC, EDTA Individually Administered",Enterococcus faecalis [2]; EDTA in 50 mM Tris alone,15630 µM
same,"MIC, EDTA Individually Administered",Staphylococcus aureus [3]; EDTA in 50 mM Tris alone,1000 µM
"CN[C@H](CC(C)C)C(=O)N[C@H]1C(=O)N[C@@H](CC(N)=O)C(=O)N[C@H]2C(=O)N[C@H]3C(=O)N[C@H](C(=O)N[C@H](C(=O)O)c4cc(O)cc(O)c4-c4cc3ccc4O)[C@H](O)c3ccc(c(Cl)c3)Oc3cc2cc(c3O[C@@H]2O[C@H](CO)[C@@H](O)[C@H](O)[C@H]2O[C@H]2C[C@](C)(N)[C@H](O)[C@H](C)O2)Oc2ccc(cc2Cl)[C@H]1O [Va, vancomycin]",Antibiotic resistance profile,Pseudomonas aeruginosa [4],R
same,Antibiotic resistance profile,Enterococcus faecalis [5],R
same,Antibiotic resistance profile,Staphylococcus aureus [6],S
cocamidopropyl betaine,MBC,Pseudomonas aeruginosa [7],50% of stock solution
same,MIC,Pseudomonas aeruginosa [7],25% of stock solution
same,MBC,Candida albicans,0.3% of stock solution
same,MIC,Candida albicans,0.1% of stock solution
same,MBC,Proteus mirabilis,50% of stock solution
same,MIC,Proteus mirabilis,25% of stock solution
same,MBC,[8],0.1% of stock solution
same,MIC,[8],0.1% of stock solution
same,MBC,Malassezia pachydermatis,0.3% of stock solution
same,MIC,Malassezia pachydermatis,0.1% of stock solution
same,MBC,E. coli,50% of stock solution
same,MIC,E. coli,25% of stock solution
gentamicin [Gm],Antibiotic resistance profile,Pseudomonas aeruginosa [4],I
same,Antibiotic resistance profile,Enterococcus faecalis [5],R
same,Antibiotic resistance profile,Staphylococcus aureus [6],S
neomycin,"MIC, antibiotic Individually Administered",Pseudomonas aeruginosa [1]; antibiotic alone,1000 µg/mL
same,"MIC, antibiotic Individually Administered",Enterococcus faecalis [2]; antibiotic alone,3130 µg/mL
same,"MIC, antibiotic Individually Administered",Staphylococcus aureus [3]; antibiotic alone,3130 µg/mL
same,"MBC of Neomycin, Individually Administered",Pseudomonas aeruginosa [9],5000 µg/mL
same,"MBC of Neomycin, Co-administered",Pseudomonas aeruginosa [9]; with EDTA,40 µg/mL
same,"MBC of Neomycin, Individually Administered","Enterococcus faecalis [10]; En. faecalis, in 50 mM Tris",25000 µg/mL
same,"MBC of Neomycin, Co-administered","Enterococcus faecalis [10]; En. faecalis, with EDTA, in 50 mM Tris",6250 µg/mL
same,Decrease of MBC value when EDTA and neomycin combined compared to individually administered,Enterococcus faecalis [10]; Ent. faecalis,75%
same,Decrease of MBC value when EDTA and neomycin combined compared to individually administered,Staphylococcus aureus [11],about 50% and 50%
same,"MBC of Neomycin, Individually Administered",Staphylococcus aureus [11]; in 50 mM Tris,3130 µg/mL
same,"MBC of Neomycin, Co-administered","Staphylococcus aureus [11]; with EDTA, in 50 mM Tris",1560 µg/mL
same,Antibiotic resistance profile,Pseudomonas aeruginosa [4],R
same,Antibiotic resistance profile,Enterococcus faecalis [5],R
same,Antibiotic resistance profile,Staphylococcus aureus [6],R

# — patent publication US20040208842A1, “Antimicrobial cleansing compositions and methods of use” (priority 2001, published 2004)
